Reference: ChEMBL document CHEMBL3233012, “Synthesis, antimicrobial and cytotoxic activities of pyrimidinyl benzoxazole, benzothiazole and benzimidazole” (Eur J Med Chem, 2014)
Values after ≈ are worked out from the molar mass of the structure shown. Active and inactive are the calls of the source. No cut-off for these calls is given here.

How the values were obtained:
Staphylococcus aureus [1] = assay: Antimicrobial activity against Staphylococcus aureus at 25 ug/well after 24 hrs by agar well diffusion method; type: functional; settings: read-out: DIZ
Staphylococcus aureus [2] = assay: Antimicrobial activity against Staphylococcus aureus at 50 ug/well after 24 hrs by agar well diffusion method; type: functional; settings: read-out: DIZ
Staphylococcus aureus [3] = assay: Antimicrobial activity against Staphylococcus aureus at 100 ug/well after 24 hrs by agar well diffusion method; type: functional; settings: read-out: DIZ
Escherichia coli [4] = assay: Antimicrobial activity against Escherichia coli at 25 ug/well after 24 hrs by agar well diffusion method; type: functional; settings: read-out: DIZ
Escherichia coli [5] = assay: Antimicrobial activity against Escherichia coli at 50 ug/well after 24 hrs by agar well diffusion method; type: functional; settings: read-out: DIZ
Escherichia coli [6] = assay: Antimicrobial activity against Escherichia coli at 100 ug/well after 24 hrs by agar well diffusion method; type: functional; settings: read-out: DIZ
Pseudomonas aeruginosa [7] = assay: Antimicrobial activity against Pseudomonas aeruginosa at 25 ug/well after 24 hrs by agar well diffusion method; type: functional; settings: read-out: DIZ
Pseudomonas aeruginosa [8] = assay: Antimicrobial activity against Pseudomonas aeruginosa at 50 ug/well after 24 hrs by agar well diffusion method; type: functional; settings: read-out: DIZ
Pseudomonas aeruginosa [9] = assay: Antimicrobial activity against Pseudomonas aeruginosa at 100 ug/well after 24 hrs by agar well diffusion method; type: functional; settings: read-out: DIZ
Aspergillus niger [10] = assay: Antimicrobial activity against Aspergillus niger at 25 ug/well after 48 hrs by agar well diffusion method; type: functional; settings: for zone of inhibition at 25 µg/disc: read-out: DIZ
Aspergillus niger [11] = assay: Antimicrobial activity against Aspergillus niger at 50 ug/well after 48 hrs by agar well diffusion method; type: functional; settings: read-out: DIZ
Aspergillus niger [12] = assay: Antimicrobial activity against Aspergillus niger at 100 ug/well after 48 hrs by agar well diffusion method; type: functional; settings: read-out: DIZ
Penicillium chrysogenum [13] = assay: Antimicrobial activity against Penicillium chrysogenum at 25 ug/well after 48 hrs by agar well diffusion method; type: functional; settings: for zone of inhibition at 25 µg/disc: read-out: DIZ
Penicillium chrysogenum [14] = assay: Antimicrobial activity against Penicillium chrysogenum at 50 ug/well after 48 hrs by agar well diffusion method; type: functional; settings: read-out: DIZ
Penicillium chrysogenum [15] = assay: Antimicrobial activity against Penicillium chrysogenum at 100 ug/well after 48 hrs by agar well diffusion method; type: functional; settings: read-out: DIZ
A549 [16] = assay: Cytotoxicity against human A549 cells assessed as reduction in cell viability up to 200 uM after 20 hrs by MTT assay; type: functional, cell-based
Staphylococcus aureus [17] = assay: Antimicrobial activity against Staphylococcus aureus ATCC 25923 after 24 hrs by broth dilution method; type: functional
Escherichia coli [18] = assay: Antimicrobial activity against Escherichia coli ATCC 25922 after 24 hrs by broth dilution method; type: functional
Aspergillus niger [19] = assay: Antimicrobial activity against Aspergillus niger after 24 hrs by broth dilution method; type: functional
Penicillium chrysogenum [20] = assay: Antimicrobial activity against Penicillium chrysogenum after 24 hrs by broth dilution method; type: functional
Pseudomonas aeruginosa [21] = assay: Antimicrobial activity against Pseudomonas aeruginosa ATCC 27853 after 24 hrs by broth dilution method; type: functional
A549 [22] = assay: Cytotoxicity against human A549 cells assessed as reduction in cell viability after 20 hrs by MTT assay; type: functional, cell-based; settings: for IC50: A549, 20 h

SMILES | zone of inhibition at 25 µg/disc (Staphylococcus aureus [1]) [mm] | zone of inhibition at 50 µg/disc (Staphylococcus aureus [2]) [mm] | zone of inhibition at 100 µg/disc (Staphylococcus aureus [3]) [mm] | zone of inhibition at 25 µg/disc (Escherichia coli [4]) [mm] | zone of inhibition at 50 µg/disc (Escherichia coli [5]) [mm] | zone of inhibition at 100 µg/disc (Escherichia coli [6]) [mm] | zone of inhibition at 25 µg/disc (Pseudomonas aeruginosa [7]) [mm] | zone of inhibition at 50 µg/disc (Pseudomonas aeruginosa [8]) [mm] | zone of inhibition at 100 µg/disc (Pseudomonas aeruginosa [9]) [mm] | zone of inhibition at 25 µg/disc (Aspergillus niger [10]) [mm] | zone of inhibition at 50 µg/disc (Aspergillus niger [11]) [mm] | zone of inhibition at 100 µg/disc (Aspergillus niger [12]) [mm] | zone of inhibition at 25 µg/disc (Penicillium chrysogenum [13]) [mm] | zone of inhibition at 50 µg/disc (Penicillium chrysogenum [14]) [mm] | zone of inhibition at 100 µg/disc (Penicillium chrysogenum [15]) [mm] | Activity (A549 [16]) | further results
Cc1cc(Nc2nc3ccccc3[nH]2)nc(SCc2nc3ccccc3[nH]2)n1 | 15 | 17 | 20 | 19 | 22 | 25 | 16 | 19 | 21 | 20 | 23 | 25 | 29 | 31 | 33 | inactive | 
O=C(O)c1cn(C2CC2)c2cc(N3CCNCC3)c(F)cc2c1=O [CIPROFLOXACIN] | 22 | 24 | 27 | 30 | 35 | 38 | 25 | 28 | 30 |  |  |  |  |  |  |  | MIC (Staphylococcus aureus [17]; ATCC 25923, 24 h): 12.5 µg/mL (≈ 37.7 µM); MIC (Escherichia coli [18]; ATCC 25922, 24 h): 12.5 µg/mL (≈ 37.7 µM); MIC (Aspergillus niger [19]): inactive; MIC (Penicillium chrysogenum [20]): inactive
Cc1cc(Cl)nc(SCc2nc3ccccc3o2)n1 | 5 | 7 | 8 | 6 | 8 | 11 | 5 | 7 | 8 |  | 7 | 9 |  | 8 | 10 | inactive | diameter of the inhibition zone (DIZ) (Aspergillus niger [10]): inactive; diameter of the inhibition zone (DIZ) (Penicillium chrysogenum [13]): inactive
Cc1cc(Cl)nc(SCc2nc3ccccc3s2)n1 | 6 | 4 | 16 | 7 | 10 | 14 | 7 | 9 | 10 |  | 8 | 10 | 7 | 9 | 11 | inactive | diameter of the inhibition zone (DIZ) (Aspergillus niger [10]): inactive
CC(=O)N1CCN(c2ccc(OCC3COC(Cn4ccnc4)(c4ccc(Cl)cc4Cl)O3)cc2)CC1 (stereo not given) [KETOCONAZOLE] |  |  |  |  |  |  |  |  |  | 31 | 33 | 36 | 35 | 36 | 38 |  | MIC (Staphylococcus aureus [17]): inactive; MIC (Escherichia coli [18]): inactive; MIC (Pseudomonas aeruginosa [21]): inactive; MIC (Aspergillus niger [19]): 6.25 µg/mL (≈ 11.8 µM); MIC (Penicillium chrysogenum [20]): 12.5 µg/mL (≈ 23.5 µM)
Cc1cc(Nc2nc3ccccc3s2)nc(SCc2nc3ccccc3s2)n1 | 13 | 16 | 18 | 15 | 20 | 23 | 14 | 17 | 18 | 17 | 19 | 21 | 27 | 29 | 32 |  | inhibition (A549 [22]): Dose-dependent effect; IC50 (A549 [22]): 10.5 µM
Cc1cc(Sc2nc3ccccc3o2)nc(SCc2nc3ccccc3o2)n1 | 9 | 11 | 14 | 10 | 15 | 17 | 10 | 11 | 14 | 8 | 10 | 12 | 9 | 11 | 13 | inactive | 
Cc1cc(Cl)nc(SCc2nc3ccccc3[nH]2)n1 | 8 | 10 | 12 | 8 | 13 | 16 | 8 | 10 | 12 | 7 | 9 | 11 | 8 | 10 | 12 | inactive | 
Cc1cc(Sc2nc3ccccc3s2)nc(SCc2nc3ccccc3s2)n1 | 10 | 12 | 16 | 14 | 17 | 20 | 13 | 15 | 16 | 10 | 12 | 15 | 12 | 13 | 15 |  | inhibition (A549 [22]): Dose-dependent effect; IC50 (A549 [22]): 70 µM
Cc1cc(Sc2nc3ccccc3[nH]2)nc(SCc2nc3ccccc3[nH]2)n1 | 13 | 16 | 19 | 17 | 20 | 22 | 14 | 17 | 18 | 14 | 15 | 17 | 15 | 17 | 19 | inactive | 
Cc1cc(Nc2nc3ccccc3o2)nc(SCc2nc3ccccc3o2)n1 | 10 | 13 | 17 | 12 | 17 | 20 | 11 | 14 | 17 | 15 | 17 | 19 | 19 | 21 | 24 | inactive | 
